Test results reported in patent publication US10168342B2, “Lipid probes and uses thereof” (THE SCRIPPS RESEARCH INSTITUTE, priority 2015, dated 2019).

How the values were obtained:
Type in all cases: cell-based
[1] = biological target: T1, lipid-binding proteins in Neuro2a cells (Mus musculus, UniProt Q8VCD6); experiment: SILAC MS mapping of lipid probe targets (probe-versus-No UV, probe-versus-probe) in Neuro2a cells; conditions: A-DA probe, No UV control, target protein Reep2 (Q8VCD6)
T1 construct: endogenous in cells; host or cells: Neuro2a

[2] = biological target: T2, lipid-binding proteins in A549 cells (Homo sapiens, UniProt O15173); experiment: SILAC MS mapping of UV-dependent lipid probe targets in A549 cells; conditions: A-DA probe vs NoUV
T2 construct: endogenous in cells; host or cells: A549 (PMA-stimulated for the PTGS2 experiments)
T2 sequence (O15173 whole entry): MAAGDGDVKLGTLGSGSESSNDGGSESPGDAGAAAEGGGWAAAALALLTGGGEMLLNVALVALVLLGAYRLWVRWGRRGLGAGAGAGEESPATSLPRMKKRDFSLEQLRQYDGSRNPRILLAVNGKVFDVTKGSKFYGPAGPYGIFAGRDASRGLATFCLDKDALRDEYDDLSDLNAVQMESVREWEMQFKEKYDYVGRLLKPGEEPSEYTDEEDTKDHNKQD

[3] = biological target: T3, lipid-binding proteins in A549 cells (Homo sapiens, UniProt O75911); experiment: as above; conditions: A-DA probe vs NoUV
T3 construct: endogenous in cells; host or cells: A549 (PMA-stimulated for the PTGS2 experiments)

[4] = biological target: T4, lipid-binding proteins in A549 cells (Homo sapiens, UniProt O95470); experiment: as above; conditions: A-DA probe vs NoUV
T4 construct: endogenous in cells; host or cells: A549 (PMA-stimulated for the PTGS2 experiments)

[5] = biological target: T5, lipid-binding proteins in A549 cells (Homo sapiens, UniProt P07093); experiment: as above; conditions: protein SERPINE2 (P07093), A-DA probe
T5 construct: endogenous in cells; host or cells: A549 (PMA-stimulated for the PTGS2 experiments)

[6] = biological target: T6, lipid-binding proteins in A549 cells (Homo sapiens, UniProt P07602); experiment: as above; conditions: A-DA probe vs NoUV
T6 construct: endogenous in cells; host or cells: A549 (PMA-stimulated for the PTGS2 experiments)

[7] = biological target: T7, lipid-binding proteins in A549 cells (Homo sapiens, UniProt P21796); experiment: as above; conditions: A-DA probe vs NoUV
T7 construct: endogenous in cells; host or cells: A549 (PMA-stimulated for the PTGS2 experiments)

[8] = biological target: T8, lipid-binding proteins in A549 cells (Homo sapiens, UniProt P30519); experiment: as above; conditions: A-DA probe vs NoUV
T8 construct: endogenous in cells; host or cells: A549 (PMA-stimulated for the PTGS2 experiments)

[9] = biological target: T9, lipid-binding proteins in A549 cells (Homo sapiens, UniProt P35354); experiment: as above
T9 construct: endogenous in cells; host or cells: A549 (PMA-stimulated for the PTGS2 experiments)
T9 sequence (P35354 18-604): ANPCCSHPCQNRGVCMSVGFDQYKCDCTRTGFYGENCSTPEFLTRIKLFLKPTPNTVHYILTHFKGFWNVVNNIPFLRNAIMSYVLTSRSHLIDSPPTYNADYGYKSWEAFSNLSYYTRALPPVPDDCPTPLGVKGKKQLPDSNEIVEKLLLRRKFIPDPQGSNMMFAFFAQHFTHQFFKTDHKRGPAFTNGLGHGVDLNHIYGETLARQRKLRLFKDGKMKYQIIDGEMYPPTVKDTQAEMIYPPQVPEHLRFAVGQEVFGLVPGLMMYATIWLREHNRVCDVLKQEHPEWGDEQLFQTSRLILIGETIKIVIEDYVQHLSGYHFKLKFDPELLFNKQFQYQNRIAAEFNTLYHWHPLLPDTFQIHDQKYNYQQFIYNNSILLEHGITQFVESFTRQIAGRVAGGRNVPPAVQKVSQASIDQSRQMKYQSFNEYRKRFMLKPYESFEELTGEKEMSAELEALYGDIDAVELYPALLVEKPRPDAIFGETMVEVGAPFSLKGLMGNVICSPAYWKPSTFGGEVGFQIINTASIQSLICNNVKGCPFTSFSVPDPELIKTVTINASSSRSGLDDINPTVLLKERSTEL

[10] = biological target: T10, lipid-binding proteins in A549 cells (Homo sapiens, UniProt P45880); experiment: as above; conditions: A-DA probe vs NoUV
T10 construct: endogenous in cells; host or cells: A549 (PMA-stimulated for the PTGS2 experiments)

[11] = biological target: T11, lipid-binding proteins in A549 cells (Homo sapiens, UniProt P50402); experiment: as above; conditions: A-DA probe vs NoUV
T11 construct: endogenous in cells; host or cells: A549 (PMA-stimulated for the PTGS2 experiments)

[12] = biological target: T12, lipid-binding proteins in A549 cells (Homo sapiens, UniProt P67812); experiment: as above; conditions: A-DA probe vs NoUV
T12 construct: endogenous in cells; host or cells: A549 (PMA-stimulated for the PTGS2 experiments)
T12 sequence (P67812 whole entry): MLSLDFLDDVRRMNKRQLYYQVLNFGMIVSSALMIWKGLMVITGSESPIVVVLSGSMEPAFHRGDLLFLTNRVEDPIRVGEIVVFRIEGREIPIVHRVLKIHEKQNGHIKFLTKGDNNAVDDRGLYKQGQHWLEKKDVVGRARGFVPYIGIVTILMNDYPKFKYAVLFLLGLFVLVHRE

[13] = biological target: T13, lipid-binding proteins in A549 cells (Homo sapiens, UniProt Q14534); experiment: as above; conditions: A-DA probe vs NoUV
T13 construct: endogenous in cells; host or cells: A549 (PMA-stimulated for the PTGS2 experiments)
T13 sequence (Q14534 whole entry): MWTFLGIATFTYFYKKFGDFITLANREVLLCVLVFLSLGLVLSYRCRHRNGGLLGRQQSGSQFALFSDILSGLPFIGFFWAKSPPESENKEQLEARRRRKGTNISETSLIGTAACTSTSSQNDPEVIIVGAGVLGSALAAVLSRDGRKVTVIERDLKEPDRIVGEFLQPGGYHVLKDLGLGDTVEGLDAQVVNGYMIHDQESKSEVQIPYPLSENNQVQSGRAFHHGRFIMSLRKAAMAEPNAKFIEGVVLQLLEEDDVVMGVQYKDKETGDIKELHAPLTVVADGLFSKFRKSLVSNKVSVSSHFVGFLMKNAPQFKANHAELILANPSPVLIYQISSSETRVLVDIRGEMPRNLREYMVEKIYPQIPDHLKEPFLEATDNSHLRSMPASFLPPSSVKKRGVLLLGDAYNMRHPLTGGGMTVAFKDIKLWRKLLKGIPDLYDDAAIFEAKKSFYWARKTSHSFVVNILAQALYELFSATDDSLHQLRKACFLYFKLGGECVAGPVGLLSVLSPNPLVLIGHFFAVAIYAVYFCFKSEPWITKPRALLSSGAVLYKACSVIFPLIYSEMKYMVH

[14] = biological target: T14, lipid-binding proteins in A549 cells (Homo sapiens, UniProt Q15738); experiment: as above; conditions: A-DA probe vs NoUV
T14 construct: endogenous in cells; host or cells: A549 (PMA-stimulated for the PTGS2 experiments)

[15] = biological target: T15, lipid-binding proteins in A549 cells (Homo sapiens, UniProt Q53GQ0); experiment: as above; conditions: A-DA probe vs NoUV
T15 construct: endogenous in cells; host or cells: A549 (PMA-stimulated for the PTGS2 experiments)

[16] = biological target: T16, lipid-binding proteins in A549 cells (Homo sapiens, UniProt Q5HYK3); experiment: as above; conditions: A-DA probe vs NoUV
T16 construct: endogenous in cells; host or cells: A549 (PMA-stimulated for the PTGS2 experiments)
T16 sequence (Q5HYK3 43-327): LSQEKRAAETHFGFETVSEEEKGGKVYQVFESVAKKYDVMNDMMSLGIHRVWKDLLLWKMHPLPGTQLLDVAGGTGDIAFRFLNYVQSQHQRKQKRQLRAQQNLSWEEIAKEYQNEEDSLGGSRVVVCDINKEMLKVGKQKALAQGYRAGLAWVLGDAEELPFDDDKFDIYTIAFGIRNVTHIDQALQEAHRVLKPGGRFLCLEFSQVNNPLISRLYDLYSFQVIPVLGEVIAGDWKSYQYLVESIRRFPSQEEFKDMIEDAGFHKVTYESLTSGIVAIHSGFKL

[17] = biological target: T17, lipid-binding proteins in A549 cells (Homo sapiens, UniProt Q6P1A2); experiment: as above; conditions: A-DA probe vs NoUV
T17 construct: endogenous in cells; host or cells: A549 (PMA-stimulated for the PTGS2 experiments)

[18] = biological target: T18, lipid-binding proteins in A549 cells (Homo sapiens, UniProt Q7Z2K6); experiment: as above; conditions: A-DA probe vs NoUV
T18 construct: endogenous in cells; host or cells: A549 (PMA-stimulated for the PTGS2 experiments)

[19] = biological target: T19, lipid-binding proteins in A549 cells (Homo sapiens, UniProt Q86XL3); experiment: as above; conditions: A-DA probe vs NoUV
T19 construct: endogenous in cells; host or cells: A549 (PMA-stimulated for the PTGS2 experiments)
T19 sequence (Q86XL3 whole entry): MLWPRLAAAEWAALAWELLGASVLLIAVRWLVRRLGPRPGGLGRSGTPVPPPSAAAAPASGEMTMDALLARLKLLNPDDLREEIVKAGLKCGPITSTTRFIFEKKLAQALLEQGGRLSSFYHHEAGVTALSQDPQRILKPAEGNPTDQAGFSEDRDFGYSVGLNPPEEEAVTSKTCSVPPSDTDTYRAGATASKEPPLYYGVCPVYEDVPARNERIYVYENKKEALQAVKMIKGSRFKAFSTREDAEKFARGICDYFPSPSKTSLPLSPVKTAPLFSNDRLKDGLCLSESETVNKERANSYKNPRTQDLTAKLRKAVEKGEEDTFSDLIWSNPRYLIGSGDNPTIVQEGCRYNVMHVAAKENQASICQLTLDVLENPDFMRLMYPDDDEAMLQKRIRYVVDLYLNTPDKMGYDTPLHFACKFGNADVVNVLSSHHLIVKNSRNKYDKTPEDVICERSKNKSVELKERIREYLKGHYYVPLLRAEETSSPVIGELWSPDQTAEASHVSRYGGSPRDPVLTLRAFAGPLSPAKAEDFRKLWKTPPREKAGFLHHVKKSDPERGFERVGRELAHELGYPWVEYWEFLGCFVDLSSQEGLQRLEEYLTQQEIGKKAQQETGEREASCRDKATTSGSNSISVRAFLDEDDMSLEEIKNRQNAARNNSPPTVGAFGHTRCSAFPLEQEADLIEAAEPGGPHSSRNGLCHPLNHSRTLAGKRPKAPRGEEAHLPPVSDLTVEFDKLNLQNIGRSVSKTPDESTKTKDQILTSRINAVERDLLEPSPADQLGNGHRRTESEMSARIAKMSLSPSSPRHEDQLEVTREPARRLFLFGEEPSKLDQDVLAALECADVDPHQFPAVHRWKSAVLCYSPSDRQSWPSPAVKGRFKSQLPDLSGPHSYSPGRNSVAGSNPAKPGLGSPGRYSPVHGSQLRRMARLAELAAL

[20] = biological target: T20, lipid-binding proteins in A549 cells (Homo sapiens, UniProt Q8IZV5); experiment: as above; conditions: A-DA probe vs NoUV
T20 construct: endogenous in cells; host or cells: A549 (PMA-stimulated for the PTGS2 experiments)

[21] = biological target: T21, lipid-binding proteins in A549 cells (Homo sapiens, UniProt Q8N5I4); experiment: as above; conditions: A-DA probe vs NoUV
T21 construct: endogenous in cells; host or cells: A549 (PMA-stimulated for the PTGS2 experiments)

[22] = biological target: T22, lipid-binding proteins in A549 cells (Homo sapiens, UniProt Q8NF37); experiment: as above; conditions: A-DA probe vs NoUV
T22 construct: endogenous in cells; host or cells: A549 (PMA-stimulated for the PTGS2 experiments)
T22 sequence (Q8NF37 whole entry): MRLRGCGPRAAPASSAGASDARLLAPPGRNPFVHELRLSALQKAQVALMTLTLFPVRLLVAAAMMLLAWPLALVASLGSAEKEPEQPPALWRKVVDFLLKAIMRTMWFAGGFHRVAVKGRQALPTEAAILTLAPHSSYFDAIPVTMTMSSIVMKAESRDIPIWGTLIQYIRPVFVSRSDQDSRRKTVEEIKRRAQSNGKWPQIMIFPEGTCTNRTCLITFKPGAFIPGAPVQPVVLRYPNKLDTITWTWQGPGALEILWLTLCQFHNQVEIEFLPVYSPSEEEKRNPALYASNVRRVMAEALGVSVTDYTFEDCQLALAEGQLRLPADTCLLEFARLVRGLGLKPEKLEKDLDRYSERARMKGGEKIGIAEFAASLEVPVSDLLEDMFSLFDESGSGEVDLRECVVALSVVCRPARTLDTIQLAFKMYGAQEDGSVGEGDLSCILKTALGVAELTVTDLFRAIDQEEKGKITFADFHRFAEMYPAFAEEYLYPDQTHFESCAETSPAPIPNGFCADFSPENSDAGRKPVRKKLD

[23] = biological target: T23, lipid-binding proteins in A549 cells (Homo sapiens, UniProt Q96G23); experiment: as above; conditions: A-DA probe vs NoUV
T23 construct: endogenous in cells; host or cells: A549 (PMA-stimulated for the PTGS2 experiments)

[24] = biological target: T24, lipid-binding proteins in A549 cells (Homo sapiens, UniProt Q96KC8); experiment: as above; conditions: A-DA probe vs NoUV
T24 construct: endogenous in cells; host or cells: A549 (PMA-stimulated for the PTGS2 experiments)

[25] = biological target: T25, lipid-binding proteins in A549 cells (Homo sapiens, UniProt Q99536); experiment: as above; conditions: A-DA probe vs NoUV
T25 construct: endogenous in cells; host or cells: A549 (PMA-stimulated for the PTGS2 experiments)

[26] = biological target: T26, lipid-binding proteins in A549 cells (Homo sapiens, UniProt Q9BTX1); experiment: as above; conditions: A-DA probe vs NoUV
T26 construct: endogenous in cells; host or cells: A549 (PMA-stimulated for the PTGS2 experiments)

[27] = biological target: T27, lipid-binding proteins in A549 cells (Homo sapiens, UniProt Q9H6K4); experiment: as above; conditions: A-DA probe vs NoUV
T27 construct: endogenous in cells; host or cells: A549 (PMA-stimulated for the PTGS2 experiments)
T27 sequence (Q9H6K4 whole entry): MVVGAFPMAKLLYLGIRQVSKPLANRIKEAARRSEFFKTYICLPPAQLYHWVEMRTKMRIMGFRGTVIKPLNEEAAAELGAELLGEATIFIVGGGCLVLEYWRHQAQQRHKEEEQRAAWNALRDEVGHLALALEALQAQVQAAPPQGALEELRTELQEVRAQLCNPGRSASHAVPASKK

[28] = biological target: T28, lipid-binding proteins in A549 cells (Homo sapiens, UniProt Q9HAW7); experiment: as above; conditions: A-DA probe vs NoUV
T28 construct: endogenous in cells; host or cells: A549 (PMA-stimulated for the PTGS2 experiments)
T28 sequence (Q9HAW7 26-530): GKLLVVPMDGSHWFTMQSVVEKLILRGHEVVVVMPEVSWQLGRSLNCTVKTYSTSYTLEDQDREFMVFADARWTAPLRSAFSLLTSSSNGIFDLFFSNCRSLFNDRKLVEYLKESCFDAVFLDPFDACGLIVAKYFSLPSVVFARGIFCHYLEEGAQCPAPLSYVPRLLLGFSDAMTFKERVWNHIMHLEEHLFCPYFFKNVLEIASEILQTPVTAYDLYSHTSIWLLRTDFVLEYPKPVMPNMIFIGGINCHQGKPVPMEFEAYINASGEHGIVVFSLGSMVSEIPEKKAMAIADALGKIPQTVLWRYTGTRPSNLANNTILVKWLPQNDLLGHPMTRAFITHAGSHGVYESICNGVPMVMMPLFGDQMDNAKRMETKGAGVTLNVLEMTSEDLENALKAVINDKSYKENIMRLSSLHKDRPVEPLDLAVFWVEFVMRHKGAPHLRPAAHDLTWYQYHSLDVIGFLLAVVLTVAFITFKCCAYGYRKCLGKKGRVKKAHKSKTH

[29] = biological target: T29, lipid-binding proteins in A549 cells (Homo sapiens, UniProt Q9NS69); experiment: as above; conditions: A-DA probe vs NoUV
T29 construct: endogenous in cells; host or cells: A549 (PMA-stimulated for the PTGS2 experiments)
T29 sequence (Q9NS69 whole entry): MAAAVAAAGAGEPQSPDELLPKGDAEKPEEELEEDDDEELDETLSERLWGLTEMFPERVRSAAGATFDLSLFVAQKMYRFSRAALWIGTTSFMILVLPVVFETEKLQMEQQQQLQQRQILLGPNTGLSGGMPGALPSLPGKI

[30] = biological target: T30, lipid-binding proteins in A549 cells (Homo sapiens, UniProt Q9NX47); experiment: as above; conditions: A-DA probe vs NoUV
T30 construct: endogenous in cells; host or cells: A549 (PMA-stimulated for the PTGS2 experiments)

[31] = biological target: T31, lipid-binding proteins in A549 cells (Homo sapiens, UniProt Q9UH99); experiment: as above; conditions: protein SUN2 (Q9UH99), A-DA probe
T31 construct: endogenous in cells; host or cells: A549 (PMA-stimulated for the PTGS2 experiments)
T31 sequence (Q9UH99 whole entry): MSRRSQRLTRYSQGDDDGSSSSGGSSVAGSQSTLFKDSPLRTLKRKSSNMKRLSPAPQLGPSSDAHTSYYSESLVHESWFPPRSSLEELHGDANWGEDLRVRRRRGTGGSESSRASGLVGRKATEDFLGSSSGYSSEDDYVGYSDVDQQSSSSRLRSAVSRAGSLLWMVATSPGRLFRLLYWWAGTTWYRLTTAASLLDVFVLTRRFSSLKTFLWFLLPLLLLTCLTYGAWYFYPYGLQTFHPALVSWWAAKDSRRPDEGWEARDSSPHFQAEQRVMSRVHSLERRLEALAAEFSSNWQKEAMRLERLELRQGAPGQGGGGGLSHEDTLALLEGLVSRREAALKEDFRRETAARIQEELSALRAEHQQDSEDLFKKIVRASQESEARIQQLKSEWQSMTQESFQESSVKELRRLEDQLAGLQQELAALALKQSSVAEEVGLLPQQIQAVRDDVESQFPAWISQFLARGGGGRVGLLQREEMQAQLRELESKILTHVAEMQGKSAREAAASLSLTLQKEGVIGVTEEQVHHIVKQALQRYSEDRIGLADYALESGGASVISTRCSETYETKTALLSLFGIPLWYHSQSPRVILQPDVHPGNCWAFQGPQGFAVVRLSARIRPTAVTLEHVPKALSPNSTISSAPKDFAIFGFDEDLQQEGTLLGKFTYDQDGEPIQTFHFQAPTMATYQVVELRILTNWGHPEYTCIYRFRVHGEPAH

[32] = biological target: T32, lipid-binding proteins in A549 cells (Homo sapiens, UniProt Q9Y639); experiment: as above; conditions: A-DA probe vs NoUV
T32 construct: endogenous in cells; host or cells: A549 (PMA-stimulated for the PTGS2 experiments)

Compound: C#CCCC/C=C\C/C=C\C/C=C\C/C=C\CCCC(=O)NCCC1(C)N=N1 [A-DA, (5Z,8Z,11Z,14Z)-N-(2-(3-methyl-3H-diazirin-3-yl)ethyl)icosa-5,8,11,14-tetraen-19-ynamide]
- SILAC ratio, No UV (A-DA probe versus No UV), Reep2 (Q8VCD6) [1]: 20.0
- SILAC ratio, PGRMC2 (Q80UU9) [2]: 20.0
- SILAC ratio, DHRS3 (O75911) [3]: 15.6
- SILAC ratio, SGPL1 (O95470) [4]: 19.7
- SILAC ratio, No UV (A-DA probe versus No UV) [5]: 4.5
- SILAC ratio, PSAP (P07602) [6]: 20.0
- SILAC ratio, VDAC1 (P21796) [7]: 20.0
- SILAC ratio, HMOX2 (P30519) [8]: 20.0
- SILAC ratio of PTGS2, probe versus No UV ([9]; A-DA 5 μM): 3.2
- SILAC ratio, PTGS2 (P35354) ([9]; A-DA probe vs NoUV): 3.2
- SILAC ratio, VDAC2 (P45880) [10]: 19.7
- SILAC ratio, EMD (O08579) [11]: 10.3
- SILAC ratio, SEC11A (P67812) [12]: 20.0
- SILAC ratio, SQLE (Q14534) [13]: 20.0
- SILAC ratio, NSDHL (Q15738) [14]: 16.9
- SILAC ratio, HSD17B12 (Q53GQ0) [15]: 20.0
- SILAC ratio, COQ5 (Q5HYK3) [16]: 20.0
- SILAC ratio, LPCAT3 (Q6P1A2) [17]: 20.0
- SILAC ratio, ERMP1 (Q7Z2K6) [18]: 20.0
- SILAC ratio, ANKLE2 (Q86XL3) [19]: 20.0
- SILAC ratio, RDH10 (Q8IZV5) [20]: 20.0
- SILAC ratio, DHRSX (Q8N5I4) [21]: 20.0
- SILAC ratio, LPCAT1 (Q8NF37) [22]: 20.0
- SILAC ratio, CERS2 (Q924Z4) [23]: 13.3
- SILAC ratio, DNAJC1 (Q96KC8) [24]: 20.0
- SILAC ratio, VAT1 (Q99536) [25]: 7.8
- SILAC ratio, TMEM48 (Q8VCB1) [26]: 20.0
- SILAC ratio, OPA3 (Q505D7) [27]: 20.0
- SILAC ratio, UGT1A7 (Q9HAW7) [28]: 20.0
- SILAC ratio, TOMM22 (Q9CPQ3) [29]: 18.4
- SILAC ratio, MARCH5 (Q3KNM2) [30]: 4.1
- SILAC ratio, No UV (A-DA probe versus No UV) [31]: 20.0
- SILAC ratio, NPTN (Q9Y639) [32]: 20.0
